From publication PMC8634709, “Neuroprotective Potential of Tamarillo (Cyphomandra betacea) Epicarp Extracts Obtained by Sustainable Extraction Process” (Frontiers in Nutrition, 2021)
Marks after values point to notes of the source that are not given here.

Columns and labels:
Details in all cases: mean ± SD (n = 3)
[1] = ABTS radical scavenging assay
Description: ABTS^·+ radical scavenging assay was performed according to Re et al. ([32]), with modifications. TE at six different concentrations of each sample [from 2.9 to 29 μg/ml EtOH/H2O (1:1, v/v)] was used, giving a linear response between 20 and 80% of the control absorbance. All the measurements were performed in triplicate. Equation (3) represents the percentage of ABTS^·+ inhibition due to TE extracts and Trolox compared with the ABTS control.
(3) %Inh=AABTS control−(Asample−Asample blank)/AABTS control x 100
where A ABTScontrol is absorbance of radical at t = 0 min; Asample, represents the mean of absorbance readings of TE samples, and ASampleblank is the absorbance of the sample without ABTS. The capacity of free radical scavenging was expressed by IC50 value, and the results represent the mean inhibitory concentration (in μg/ml) of TE against ABTS^·+ radical.

[2] = ROS scavenging capacity (ORAC method)
Description: In this case, a concentration range of extract from 0.62 to 6.2 μg/ml in EtOH/H2O (1:9, v/v) was measured. […] The measurements were carried out in triplicate.
(4) %Inh=AUCControl−AUCsample/AUCcontrol x 100
AUC was calculated by means of Equation (5).
where f0 and fi are fluorescence at t = 0 and every 5 min, respectively.

[3] = RNS scavenging capacity (NO radical scavenging, Griess reaction)
Description: Reactive nitrogen species scavenging capacity was measured following the NO^· radical scavenging assay according to Ho et al. ([34]) and based on the Griess reaction. […] Each measurement was carried out in triplicate, and ascorbic acid and rosemary extract were used as chemical and natural positive controls, respectively. The NO scavenging capacity of the extract was expressed through inhibition % calculated as described in Equation (3).

SMILES	ABTS IC50 [1]	ROS (ORAC) IC50 [2]	RNS IC50 [3]
Cc1c(C)c2c(c(C)c1O)CCC(C)(C(=O)O)O2 (racemic) [Trolox, (±)-6-hydroxy-2,5,7,8-tetramethylchromane-2-carboxylic acid]	2.500 ± 0.02^a μg/mL extract	1.290 ± 0.09^a μg/ml	
O=C1O[C@H]([C@@H](O)CO)C(O)=C1O [Ascorbic acid]	25.000 ± 0.30^f μg/mL extract		1100.901 ± 3.96^c μg/ml
